The subject of the test is INS-1 cells. As to the kind of experiment: GSIS assay: release of PPI-mCherry reporter into conditioned media (relative fluorescence). In kind it is cell-based, rat. To be noted: INS-1 cells transduced with PPI-mCherry, 2 h.

Protocol: (HG—high glucose (25 mM): LG—low glucose (5.6 mM): Ex—10 nM: NF—nifedipine 10 μM, calcium channel blocker/inhibitor) (Y-axis=normalized fluorescent units—FLU).
The reporter system was tested in insulin secretion assays.
GSIS: INS-1 cells were transduced with PPI-mCherry and allowed to recover. […] Conditioned media was removed and spotted onto a membrane and relative fluorescence determined using an Odyssey CLx imager (Licor Corp).

“PPI-mCherry: Genetically encoded preproinsulin-mCherry fluorescent protein reporter (SEQ ID NO: 1), delivered by pLenti vector”: the “glucose stimulated release of the PPI-mCherry reporter (high vs low glucose)” value turned out to be 1.7 fold.
